# Laboratory results from ChEMBL document CHEMBL5042504 (J Med Chem, 2022).
# Active and inactive are the calls of the source. The rule behind the calls is not given here.
# Tests used:
# Histone deacetylase 11 = target: T1, Histone deacetylase 11 (Homo sapiens, UniProt Q96DB2); test: Inhibition of human recombinant HDAC11 using Boc-Lys(triflouroacetyI)-AMC substrate incubated for 2 hrs by fluorescence based assay
# T1 sequence (Q96DB2 whole entry): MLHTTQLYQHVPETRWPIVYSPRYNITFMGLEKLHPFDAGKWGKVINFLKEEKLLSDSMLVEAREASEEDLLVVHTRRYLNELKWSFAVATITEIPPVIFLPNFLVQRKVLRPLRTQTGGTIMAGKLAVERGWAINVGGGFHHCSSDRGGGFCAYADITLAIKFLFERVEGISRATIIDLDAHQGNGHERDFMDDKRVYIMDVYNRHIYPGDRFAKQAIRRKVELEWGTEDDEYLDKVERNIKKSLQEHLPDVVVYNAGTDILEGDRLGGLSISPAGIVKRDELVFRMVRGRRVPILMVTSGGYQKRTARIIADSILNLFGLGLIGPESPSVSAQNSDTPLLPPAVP
# Histone deacetylase 7 = target: T2, Histone deacetylase 7 (Homo sapiens, UniProt Q8WUI4); test: Inhibition of human recombinant HDAC7 using Boc-Lys(triflouroacetyI)-AMC substrate incubated for 2 hrs by fluorescence based assay
# T2 sequence (Q8WUI4 whole entry): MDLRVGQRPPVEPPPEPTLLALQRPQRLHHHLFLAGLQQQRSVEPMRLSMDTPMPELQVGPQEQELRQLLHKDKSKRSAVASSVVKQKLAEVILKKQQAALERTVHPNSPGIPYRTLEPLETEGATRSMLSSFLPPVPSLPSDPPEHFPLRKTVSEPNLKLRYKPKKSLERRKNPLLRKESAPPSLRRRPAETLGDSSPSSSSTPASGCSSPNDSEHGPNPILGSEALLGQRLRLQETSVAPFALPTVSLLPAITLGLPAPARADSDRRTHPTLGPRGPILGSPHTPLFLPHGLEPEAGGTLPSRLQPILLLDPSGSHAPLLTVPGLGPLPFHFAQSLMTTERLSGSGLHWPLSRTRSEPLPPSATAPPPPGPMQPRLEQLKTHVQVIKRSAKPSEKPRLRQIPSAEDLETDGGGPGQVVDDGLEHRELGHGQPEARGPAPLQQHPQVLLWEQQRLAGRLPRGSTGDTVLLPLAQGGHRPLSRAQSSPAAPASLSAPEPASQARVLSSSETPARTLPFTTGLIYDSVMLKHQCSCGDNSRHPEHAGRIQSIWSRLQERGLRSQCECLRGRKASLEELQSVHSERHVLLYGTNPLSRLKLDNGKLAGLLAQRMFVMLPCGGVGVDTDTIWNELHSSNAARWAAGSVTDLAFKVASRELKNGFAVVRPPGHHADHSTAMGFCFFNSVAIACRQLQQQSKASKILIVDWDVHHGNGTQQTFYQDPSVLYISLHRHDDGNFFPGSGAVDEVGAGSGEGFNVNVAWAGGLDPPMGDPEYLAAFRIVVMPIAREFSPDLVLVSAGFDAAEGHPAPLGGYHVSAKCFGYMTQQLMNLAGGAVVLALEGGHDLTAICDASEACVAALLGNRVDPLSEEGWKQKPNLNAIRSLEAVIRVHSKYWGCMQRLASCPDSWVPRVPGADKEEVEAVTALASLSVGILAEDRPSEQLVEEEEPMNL
# MV4-11 [1] = test: Up regulation of acetylated histoneH4 ine expression in human MV4-11 cells at 200 nM measured after 24 hrs by Western blot analysis; type: functional, cell-based
# MOLM-13 = test: Antiproliferative activity against human MOLM-13 cells assessed as reduction in cell viability measured after 48 hrs by multiplate reader method; settings: MOLM-13, 48 h
# RS4-11 = test: Antiproliferative activity against human RS4-11 cells assessed as reduction in cell viability measured after 48 hrs by multiplate reader method; settings: RS4-11, 48 h
# MV4-11 [2] = test: Up regulation of acetylated histoneH4 in expression in human MV4-11 cells at 100 nM measured after 24 hrs by Western blot analysis; type: functional, cell-based
# U-937 = test: Antiproliferative activity against human U-937 cells assessed as reduction in cell viability after 48 hrs by MTT assay; settings: U-937, 48 h
# [3] = Plasma concentration in BALB/c mouse xenografted with human AML MV4-11 cells at 4 mg/kg, ip; type: ADME, organism-based; settings: in vivo
# Histone deacetylase 2 = Histone deacetylase 2 (Homo sapiens, UniProt Q92769); test: Inhibition of human recombinant HDAC2 using Boc-Lys(acetyl)-AMC substrate incubated for 2 hrs by fluorescence based assay
# MV4-11 [4] = test: Antitumor activity against human MV4-11 cells xenografted in balb/c mouse assessed as accumulation of AcHH3 protein level at 4 mg/kg, po measured after 8 hrs; type: functional, organism-based
# MV4-11 [5] = test: Cell cycle arrest in human […] MV4-11 cells assessed as accumulation at G2/M-phase at 500 nM measured after 24 hrs realtive to control; type: functional, cell-based
# HL-60 [6] = test: Induction of apoptosis in human p53 null HL-60 cells assessed as […] at 200 nM measured after 24 hrs by FITC Annexin V/propidium iodide staining based flow cytometry (reference value: 20.55%); type: functional; settings: read-out: Activity
# [7] = Toxicity in BALB/c mouse xenografted with MV4-11 cells assessed as body weight loss
# [8] = Drug distribution in BALB/c mouse heart measured at 4 mg/kg, po or ip after 0.5 hrs after 0.5 hrs; type: ADME, organism-based; settings: in vivo
# [9] = Toxicity in BALB/c mouse assessed as induction of pathological changes in lung by H and E staining based analysis; type: tissue-based; settings: in vivo
# HL-60 [10] = test: Induction of apoptosis in human p53 null HL-60 cells assessed as […] at 500 nM measured after 24 hrs by FITC Annexin V/propidium iodide staining based flow cytometry (reference value: 20.55%); type: functional; settings: read-out: Activity
# [11] = Oral bioavailability in CD-1 mouse at 20 mg/kg measured upto 24 hrs; type: ADME, organism-based; settings: in vivo
# [12] = Drug distribution in BALB/c mouse liver measured at 4 mg/kg, po or ip after 0.5 hrs after 0.5 hrs; type: ADME, organism-based; settings: in vivo
# [13] = Cmax in CD-1 mouse at 5 mg/kg, iv measured upto 24 hrs; type: ADME, organism-based; parameters: route intravenous, dose 5 mg/kg, time <=24; settings: in vivo
# [14] = Drug distribution in tumor of BALB/c mouse xenografted with human MV4-11 cells assessed as measured after 2 hrs; type: ADME; settings: read-out: Ct
# [15] = Drug distribution in BALB/c mouse lung measured at 4 mg/kg, po or ip after 0.5 hrs after 0.5 hrs; type: ADME, organism-based; settings: in vivo
# [16] = Toxicity in BALB/c mouse assessed as induction of pathological changes in spleen by H and E staining based analysis; type: tissue-based; settings: in vivo
# [17] = Drug distribution in BALB/c mouse heart measured at 4 mg/kg, po or ip after 2 to 8 hrs after 0.5 hrs; type: ADME, organism-based; settings: in vivo, time 2-8 hrs
# [18] = Drug distribution in BALB/c mouse brain measured at 4 mg/kg, po or ip after 0.5 hrs after 0.5 hrs; type: ADME, organism-based; settings: in vivo
# MV4-11 [19] = test: Antitumor activity against human MV4-11 cells xenografted in balb/c mouse assessed as accumulation of AcHH4 protein level at 4 mg/kg, po measured after 8 hrs; type: functional, organism-based
# [20] = Drug distribution in tumor of BALB/c mouse xenografted with human MV4-11 cells assessed as measured after 0.5 hrs; type: ADME; settings: read-out: Ct
# Chain of Histone deacetylase 2 (Q92769 whole entry): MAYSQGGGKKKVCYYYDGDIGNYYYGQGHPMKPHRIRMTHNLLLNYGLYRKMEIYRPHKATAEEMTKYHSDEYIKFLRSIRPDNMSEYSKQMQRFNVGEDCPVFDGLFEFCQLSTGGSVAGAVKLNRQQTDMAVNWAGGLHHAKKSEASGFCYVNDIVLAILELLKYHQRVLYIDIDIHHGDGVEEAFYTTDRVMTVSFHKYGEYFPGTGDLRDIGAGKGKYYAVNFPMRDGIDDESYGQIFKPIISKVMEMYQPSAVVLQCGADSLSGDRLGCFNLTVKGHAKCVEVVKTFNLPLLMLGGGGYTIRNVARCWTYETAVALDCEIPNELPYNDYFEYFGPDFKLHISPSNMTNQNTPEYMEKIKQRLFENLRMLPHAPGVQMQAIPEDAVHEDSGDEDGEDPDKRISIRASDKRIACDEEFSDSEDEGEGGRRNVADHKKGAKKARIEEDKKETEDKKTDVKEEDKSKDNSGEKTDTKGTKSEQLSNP
compound,measurement,setting,value
CCCNNC(=O)c1ccc(CNC(=O)/C=C/c2ccccc2)cc1,IC50,Histone deacetylase 11,> 5000 nM
same,IC50,Histone deacetylase 7,> 5000 nM
same,Activity,MV4-11 [1],Active
same,IC50,MOLM-13,103 nM
same,IC50,RS4-11,82 nM
same,Activity,MV4-11 [2],Active
same,IC50,U-937,161 nM
CCCNNC(=O)c1ccc(CNC(=O)c2cc3ccccc3[nH]2)cc1,IC50,Histone deacetylase 11,> 5000 nM
same,Drug uptake,[3],Active
same,IC50,Histone deacetylase 7,> 5000 nM
same,IC50,Histone deacetylase 2,18.5 nM
same,Activity,MV4-11 [4],Active
same,Activity,MV4-11 [5],Active
same,Activity,MV4-11 [1],Active
same,viability at 0.2 µM,HL-60 [6],32.6%
same,Activity,[7],Non-Toxic
same,Drug uptake,[8],Active
same,Activity,[9],Non-Toxic
same,viability at 0.5 µM,HL-60 [10],44.8%
same,F,[11],112%
same,Drug uptake,[12],Active
same,Cmax,[13],21600 ng/mL
same,IC50,MOLM-13,40.4 nM
same,concentration at 2 h,[14],882 ng/g
same,IC50,RS4-11,31.5 nM
same,Activity,MV4-11 [2],Active
same,Drug uptake,[15],Active
same,Activity,[16],Non-Toxic
same,Drug uptake,[17],Active
same,Drug uptake,[18],Active
same,IC50,U-937,60.5 nM
same,Activity,MV4-11 [19],Active
same,concentration at 0.5 h,[20],1130 ng/g
